Results as given in PubChem BioAssay AID1963964 (Molecular Pharmacology Branch, DTP, NCI, 2024).

Tested on: 997726-040-R-J2-PDC tumor spheroids, viability
Test: Anticancer human tumor 997726-040-R-J2-PDC patient-derived squamous cell lung carcinoma cell line growth inhibition [PI3K]
Settings: spheroids with HUVEC and MSC; for viability, T/C: stronger effect = lower value
Excerpt: Combinatorial screen of targeted agents with the PI3K inhibitors inavolisib, alpelisib, duvelisib, and copanlisib in multi-cell type tumor spheroids
A high-throughput screen of multi-cell type tumor spheroids was designed to identify active combinations of targeted small molecules and PI3K pathway inhibitors. Complex spheroids include a stromal component modeled by human endothelial cells (HUVEC) and fibroblasts modeled by human mesenchymal stem cells (MSCs). The concentration ranges selected for each drug and investigational agent were based upon clinically achievable concentrations if the clinical Cmax of the agent was known.
Compounds. The drugs and investigational agents: inavolisib (NSC800729), alpelisib (NSC765974), duvelisib (NSC772469), copanlisib (NSC816437), ipatasertib (NSC767898), afuresertib (NSC778305), talazoparib (NSC767125), sapanisertib (NSC764658), selumetinib (NSC741078), tovorafenib (DAY101, NSC766906), vemurafenib (NSC761431), ravoxertinib (NSC781343), sotorasib (NSC818433), MRTX1133 (NSC 836407), abemaciclib (NSC 768073), palbociclib (NSC758247), venetoclax (NSC 766270), SY5609 (NSC837396), enzalutamide (NSC755605), and darolutamide (NSC825331), were obtained from the National Cancer Institute (NCI) Developmental Therapeutics Program Chemical Repository. The FDA-approved anticancer drug set is available from the NCI Developmental Therapeutics Program. […] The stock solutions were prepared in dimethyl sulfoxide (DMSO, Sigma-Aldrich, St. Louis, MO, cat. D2650) at 800-fold the tested concentration and stored at -70 degrees C prior to their use. All drugs and investigational agents were tested over a range starting from a high concentration at or near the clinical Cmax and decreasing in half-log increments. If the clinical Cmax for an agent had not been determined, the highest concentration tested was 10 microM.
Cell Culture. All cells were maintained in an incubator at 37 degrees C and 5% CO2 with 95% humidity. The PDC lines were cultured according to standard operating procedures established by the NCI PDMR (https://pdmr.cancer.gov/sops/default.htm). All PDCs were thawed and cultured in Matrigel-coated flasks prepared with a working solution of 1X Ham's F-12 nutrient mix, without supplementation (Invitrogen, Waltham, MA, cat. 11765054), 100 U/mL penicillin-streptomycin (Invitrogen, cat. 15140122), and 2.5% Matrigel (Corning Inc., Corning, NY, cat. 354248) for the first three passages. The 354836-022-R-J1-PDC, 475296-252-R-J1-PDC, and 997726-040-R-J2-PDC lines were cultured in 6A media, which includes advanced DMEM/F-12 (Thermo Fisher Scientific, cat. 12634028), 10 mM HEPES (Thermo Fisher Scientific, cat. 15630080), 1X GlutaMAX supplement (Thermo Fisher Scientific, cat. 35050061), 0.1 mg/mL primocin (InvivoGen, San Diego, CA, cat. ant-pm-2), 10% defined fetal bovine serum, heat inactivated (HyClone Laboratories Inc., Logan, UT, cat. SH30070.03HI), 50% L-WRN conditioned media (ATCC, cat. CRL-3276), 1.25 mM N-Acetyl-L-cysteine (Sigma-Aldrich, cat. A9165), 10 mM nicotinamide (Sigma-Aldrich, cat. N0636), 1X B-27 supplement (Thermo Fisher Scientific, cat. 17504044), 1X N-2 supplement (Thermo Fisher Scientific, cat. 17502048), and 10 microM Y-27632 dihydrochloride (Tocris Bioscience, Bristol, United Kingdom, cat. 1254). The 624824-186-R-J2-PDC line was cultured in 6C/Colon 1B media, which includes all 6A media components plus 50 ng/mL human EGF recombinant protein (Thermo Fisher Scientific, cat. PHG0311). […]
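Also: spheroids exposed to compounds for seven days before readout.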

**Q.** `CC1(C)CCC(Nc2ncc(C(F)(F)F)c(-c3c[nH]c4c(P(C)(C)=O)c(C#N)ccc34)n2)CN1` (centres undefined) + COc1c(OCCCN2CCOCC2)ccc2c3n(c(=NC(=O)c4cnc(N)nc4)nc12)CCN3 was tested. Which IC50 (curve of first compound, second compound 0.00316 µM) did it give?
**A.** < 31.6 nM

**Q.** And the IC50 (curve of first compound, second compound 0.01 µM)?
**A.** < 31.6 nM

**Q.** And the IC50 (curve of first compound, second compound 0.0316 µM)?
**A.** < 31.6 nM

**Q.** And the IC50 (curve of first compound, second compound 0.1 µM)?
**A.** < 31.6 nM

**Q.** And the IC50 (curve of first compound, second compound 0.316 µM)?
**A.** < 31.6 nM

**Q.** What about the IC50 (curve of first compound, second compound 1 µM) of the same compound?
**A.** < 31.6 nM

**Q.** And the viability, T/C (second compound 0.00316 µM, first compound 0.0316 µM)?
**A.** 36.8%

**Q.** What about the viability, T/C (second compound 0.00316 µM, first compound 0.1 µM) of the same compound?
**A.** 34.2%

**Q.** And the viability, T/C (second compound 0.00316 µM, first compound 0.316 µM)?
**A.** 40.7%

**Q.** What about the viability, T/C (second compound 0.00316 µM, first compound 1 µM) of the same compound?
**A.** 34.8%

**Q.** What about the viability, T/C (second compound 0.00316 µM, first compound 3.16 µM) of the same compound?
**A.** 39.8%

**Q.** What about the viability, T/C (second compound 0.00316 µM, first compound 10 µM) of the same compound?
**A.** 16.6%

**Q.** And the viability, T/C (second compound 0.01 µM, first compound 0.0316 µM)?
**A.** 27%

**Q.** What about the viability, T/C (second compound 0.01 µM, first compound 0.1 µM) of the same compound?
**A.** 28.9%

**Q.** And the viability, T/C (second compound 0.01 µM, first compound 0.316 µM)?
**A.** 29.9%

**Q.** And the viability, T/C (second compound 0.01 µM, first compound 1 µM)?
**A.** 30.5%

**Q.** What about the viability, T/C (second compound 0.01 µM, first compound 3.16 µM) of the same compound?
**A.** 33.6%

**Q.** And the viability, T/C (second compound 0.01 µM, first compound 10 µM)?
**A.** 12.6%

**Q.** And the viability, T/C (second compound 0.0316 µM, first compound 0.0316 µM)?
**A.** 21.4%

**Q.** And the viability, T/C (second compound 0.0316 µM, first compound 0.1 µM)?
**A.** 17.6%

**Q.** And the viability, T/C (second compound 0.0316 µM, first compound 0.316 µM)?
**A.** 18.2%

**Q.** What about the viability, T/C (second compound 0.0316 µM, first compound 1 µM) of the same compound?
**A.** 24.8%

**Q.** And the viability, T/C (second compound 0.0316 µM, first compound 3.16 µM)?
**A.** 23.9%

**Q.** What about the viability, T/C (second compound 0.0316 µM, first compound 10 µM) of the same compound?
**A.** 7.84%

**Q.** And the viability, T/C (second compound 0.1 µM, first compound 0.0316 µM)?
**A.** 13.5%

**Q.** And the viability, T/C (second compound 0.1 µM, first compound 0.1 µM)?
**A.** 12.1%

**Q.** What about the viability, T/C (second compound 0.1 µM, first compound 0.316 µM) of the same compound?
**A.** 13.2%

**Q.** And the viability, T/C (second compound 0.1 µM, first compound 1 µM)?
**A.** 13.9%

**Q.** And the viability, T/C (second compound 0.1 µM, first compound 3.16 µM)?
**A.** 15%

**Q.** And the viability, T/C (second compound 0.1 µM, first compound 10 µM)?
**A.** 2.98%

**Q.** What about the viability, T/C (second compound 0.316 µM, first compound 0.0316 µM) of the same compound?
**A.** 3.97%

**Q.** What about the viability, T/C (second compound 0.316 µM, first compound 0.1 µM) of the same compound?
**A.** 3.68%

**Q.** And the viability, T/C (second compound 0.316 µM, first compound 0.316 µM)?
**A.** 3.96%

**Q.** And the viability, T/C (second compound 0.316 µM, first compound 1 µM)?
**A.** 5.01%

**Q.** And the viability, T/C (second compound 0.316 µM, first compound 3.16 µM)?
**A.** 4.34%

**Q.** And the viability, T/C (second compound 0.316 µM, first compound 10 µM)?
**A.** 0.66%

**Q.** What about the viability, T/C (second compound 1 µM, first compound 0.0316 µM) of the same compound?
**A.** 0.85%

**Q.** And the viability, T/C (second compound 1 µM, first compound 0.1 µM)?
**A.** 0.74%

**Q.** And the viability, T/C (second compound 1 µM, first compound 0.316 µM)?
**A.** 0.9%

**Q.** What about the viability, T/C (second compound 1 µM, first compound 1 µM) of the same compound?
**A.** 0.76%

**Q.** And the viability, T/C (second compound 1 µM, first compound 3.16 µM)?
**A.** 0.9%

**Q.** And the viability, T/C (second compound 1 µM, first compound 10 µM)?
**A.** 0.33%

**Q.** Which viability, T/C (compound 0.0316 µM) does the source give for `Cn1ncc(Cl)c1-c1cc(C(=O)NC(CN)Cc2cccc(F)c2)sc1Cl` (centres undefined) here?
**A.** 84.3% [middle of 4 runs]

**Q.** And the viability, T/C (compound 0.1 µM)?
**A.** 46.1% [middle of 4 runs]

**Q.** And the viability, T/C (compound 0.316 µM)?
**A.** 27.1% [middle of 4 runs]

**Q.** And the viability, T/C (compound 1 µM)?
**A.** 12.9% [middle of 4 runs]

**Q.** What about the viability, T/C (compound 3.16 µM) of the same compound?
**A.** 9.41% [middle of 4 runs]

**Q.** What about the viability, T/C (compound 10 µM) of the same compound?
**A.** 12.4% [middle of 4 runs]

**Q.** And the IC50 (curve of compound)?
**A.** 92.5 nM [middle of 4 runs]
